According to patent publication US20110111407A1, “METHOD FOR ANALYSING THE EPIGENETIC STATUS OF THE HTRA 1 GENE IN A BIOLOGICAL SAMPLE” (priority 2008, published 2011):
Read-outs that look alike come from different tables or passages of the source.

Columns and labels:
cells = details: cited from earlier work
HtrA1 [1] = molecular target: HtrA1 (Homo sapiens, UniProt Q92743); assay: HtrA1 enzymatic activity with p-NA substrate; format: biochemical; details: 25 μM Cytochalasin E, preincubated 10 minutes at 37° C., 0.5 mM p-NA substrate, measured 70 minutes at 405 nm
Method: HtrA1 activity was determined with a p-NA substrate. HtrA1 was incubated with either DMSO alone or 25 μM Cytochalasin E that was dissolved in DMSO. Reaction was measured spectrophometrically for 70 minutes at 37° C. at 405 nm.
Enzymatic activity of HtrA1 was assayed using acyl p-nitroanilide (p-NA) substrate FANQHLCGSHLVEA-p-NA. HtrA1 (5 μg) was preincubated with Cytochalasin E (25 μM) for 10 minutes at 37° C. Reaction was initiated by adding p-NA substrate at a final concentration of 0.5 mM. The volume of each reaction was 100 μl in 50 mM Tris-HCl pH 8. Reaction was measured continuously in a spectrophotometer for 70 minutes at 37° C. at 405 nm.

[2] = tested on: HtrA1 expression in HCT116 and SW480 cells; assay: HtrA1 expression by quantitative real-time PCR after 5-Aza-dC and TSA treatment; format: cell-based, human; details: HCT116 and SW480 cancer cells treated with 5-Aza-dC (5 μM and 10 μM, 56 h) then 400 nM TSA (16 h) vs solvent only
Method: Expression of HtrA1 in HCT116 and SW480 cells treated with 5-Aza-dC and TSA. Cells were treated with 5-Aza-dC and TSA or solvent only. RNA was extracted from the cells followed by reverse transcription. cDNA was analyzed by quantitative real-time PCR.
Cells were seeded at a density of 5×10^5/60 mm dish and allowed to attach over 24 h in a 37° C. incubator in a humified atmosphere with 5% CO2. 5-aza-2′-deoxycytidine was solved in 50% acetic acid. It was added to the medium for a final concentration ranging from 0 to 10 μM for 72 h. At every 24 h interval, fresh medium containing the drug was added. Cells were incubated in a 37° C. incubator in a humified atmosphere with 5% CO2. […]
At the end of the treatment cells were washed twice with PBS and RNA was isolated for analysis of HtrA1 expression using quantitative Real-Time-PCR. […]
Quantitative Real-Time PCR was performed on the RotorGene3000 (Corbett Life Science) using Absolute QPCR SYBR Green Mix (ABgene) according to the manufacturer's instructions. 1 μl of cDNA, 12.5 μl Absolute QPCR SYBR Green Mix and 400 nM of each primer were used for the quantitative real-time PCR reaction. […]
The relative gene expression level of HtrA1 was calculated relative to the GAPDH and PPIA genes according to the method of Pfaffl (Pfaffl Nucleic Acids Res 29:e45 (2001)).

SW480 cells = assay: Polyploidy of SW480 cells depleted for HtrA1 (FACS, karyotyping); format: cell-based, human
Method: A) Polyploidy of SW480 cells depleted for HtrA1/FACS analysis • SW480 (colon cancer) cells were transduced with a shRNA against HtrA1. After some passages cells were analyzed by propidium iodide staining for their DNA content. Gate M1 corresponds to a DNA content of 2n, gate M3 corresponds to a DNA content of 4n and gate M5 corresponds to a DNA content of 8n. […] B) Polyploidy of SW480 cells depleted for HtrA 1/karyo-typing • Metaphase chromosomes of SW480 cell lines transduced with plko empty vector and plko vector containing a shRNA against HtrA1.
Cells were harvested by treatment with trypsin/EDTA. Cells were centrifuged for 5 minutes at 1700 g and 4° C. The pellet was resuspended and washed in 1 ml PBS. Cells were centrifuged again for 5 minutes at 1700 g and 4° C. The supernatant was discarded and the pellet was resuspended in 100 μl PBS. […] After addition of 5 μl RNase A (10 mg/ml) and 15 μl propidium iodide (2 mg/ml, Sigma #P4170), cells were incubated in the dark at 4° C. for 60 minutes and then analysed at the flow cytometer (FACScalibur, BD biosciences) […]
Cell suspensions were dropped onto pre-cleaned, wet, ice-cold glass microscope slides to obtain good spreading of the chromosome sets. […] Intact metaphase cells (those that were not disrupted during the preparation step) were counted for their chromosome numbers at 1000 fold magnification (oil-immersion).

p21 = p21 RNA level by quantitative RT-PCR after shRNA against HtrA1; format: cell-based, human
Method: (§1) Analysis of HtrA1 and p21 expression in U373 (astrocytoma) and SW480 (colon cancer) cells transduced with an shRNA against HtrA1 or an empty vector control. The HtrA1- and p21-RNA level were analysed by quantitative RT-PCR.
(§2) The cell line SW480 derived from human colon adenocarcinoma (DMSZ no. ACC 313) and the cell line U373 MG derived from human glioblastoma astrocytoma (ECACC no. 89081403) were cultured in DMEM (Gibco, Invitrogen) supplemented with 10% fetal bovine serum (FBS) and 1% penicillin-streptomycin at 5% CO2 and 37° C. The media for the stable transduced SW480 cell lines additionally contain 1.8 μg/ml puromycin.
(§3) 4×10^5 SW480 cells/well were seeded into a six-well plate. After two days the six-well plate was 80% confluent and RNA was extracted by using total RNA isolation kit (Macherey-Nagel). RNA was purified with NucleoSpin RNAII columns (Macherey-Nagel) according to the procedure by the manufacturer. […]
(§4) Quantitative RT-PCR was done with Platinum SYBR Green qPCR-superMix-UDG-kit (Invitrogen) with Rotor-Gene RG3000 from Corbett Research. […]
(§5) The total reaction volume was of 25 μl, containing 12.5 μl SYBR Green PCR Master Mix (Invitrogen), 1 μl Primer (4.5 μM each) and 4 μl cDNA (20 ng). […] Melting curve was measured every 5 seconds from 50° C. to 99° C. Gene expression ratios for each sample were calculated as described (Pfaffl, Nucleic Acids Res, 29:e45 (2001)). […]

HtrA1 [3] = assay: HtrA1 RNA level by quantitative RT-PCR after shRNA transduction; format: cell-based, human; details: U373 and SW480 cells expressing the shRNA vs empty vector control
Method: as §1, §2, §3, §4, §5

HtrA1 (Homo sapiens, UniProt Q92743), sequence (Q92743 23-480): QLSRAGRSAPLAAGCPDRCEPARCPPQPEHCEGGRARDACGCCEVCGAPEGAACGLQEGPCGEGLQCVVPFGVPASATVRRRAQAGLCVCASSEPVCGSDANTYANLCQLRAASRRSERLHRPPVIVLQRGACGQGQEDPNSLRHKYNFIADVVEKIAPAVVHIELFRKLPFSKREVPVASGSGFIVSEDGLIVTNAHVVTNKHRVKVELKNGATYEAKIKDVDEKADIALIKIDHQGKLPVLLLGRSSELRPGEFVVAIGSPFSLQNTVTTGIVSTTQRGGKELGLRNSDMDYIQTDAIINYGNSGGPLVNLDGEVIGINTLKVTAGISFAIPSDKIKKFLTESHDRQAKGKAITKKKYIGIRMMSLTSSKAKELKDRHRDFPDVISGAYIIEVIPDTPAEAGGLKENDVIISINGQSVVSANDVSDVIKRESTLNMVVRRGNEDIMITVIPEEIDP

What does the source list for `C=C1[C@@H](C)[C@H]2[C@H](Cc3ccccc3)NC(=O)[C@]23OC(=O)/C=C/[C@H](O)CCC[C@@H](C)C/C=C/[C@H]3[C@@H]1O` [Cytochalasin B]?
p21 induction and cell cycle arrest (cells; high amounts): induce p21 and cell cycle arrest; cell cycle arrest (cells; large amounts (10 μg/ml)): cell cycle arrest via p21; polyploidy (cells; large amounts (10 μg/ml)): cause polyploidy; cell cycle arrest (cells; low doses (0.5 μg/ml)): no cell cycle arrest; polyploidy (cells; low doses (0.5 μg/ml)): also cause polyploidy; polyploidy (cells; no concentration stated, by inhibition of actin polymerisation): causes polyploidy

Which HtrA1 activity inhibition (HtrA1 [1]) does the source give for `C[C@H]1C/C=C/[C@H]2[C@@H]3O[C@]3(C)[C@@H](C)[C@H]3[C@H](Cc4ccccc4)NC(=O)[C@]32OC(=O)O/C=C/[C@@](C)(O)C1=O` [Cytochalasin E] here?
Its HtrA1 activity inhibition is “potent HtrA1 inhibitor”.

What about the HtrA1 activity inhibition (HtrA1 [1]; listed as cytochalasin E) of the same molecule?
Its HtrA1 activity inhibition is “efficiently inhibits HtrA1”.

With `CC(/C=C/C(=O)NO)=C\[C@@H](C)C(=O)c1ccc(N(C)C)cc1` [TSA, Trichostatin A] as the molecule, how does the HtrA1 expression [2] read?
Its HtrA1 expression is “large increase in HtrA1 expression”.

For `Nc1ncn([C@H]2C[C@H](O)[C@@H](CO)O2)c(=O)n1` [5-Aza-dC, 5-Aza-2′-deoxycytidine], which HtrA1 expression [2] is on record?
Its HtrA1 expression is “large increase in HtrA1 expression”.

B1: shRNA against HtrA1: hairpin sequence (Seq. ID. No 25/26) in lentiviral plko vector, knocks down HtrA1 (nucleic acid)
sense: CCGGGATCTCAGGAGCGTATATATTCTCGAGAATATATACGCTCCTGAGATCTTTTTG
antisense: CTAGAGTCCTCGCATATATAAGAGCTCTTATATATGCGAGGACTCTAGAAAAACTTAA
For B1, which “DNA content by propidium iodide staining (FACS)” value (SW480 cells; SW480 cells vs empty vector) is on record?
Its value is “shift of the main peak from 2n to 4n and a shift of the smaller peak from 4n to 8n”.

What about the “polyploidy by karyotyping of metaphase chromosomes” value (SW480 cells; SW480 cells vs empty vector control) of the same molecule?
Its value is “higher grade of polyploidy”.

What about the “p21 mRNA levels downregulated by a factor of” value (p21; HtrA1 expressed at much lower levels by shRNA) of the same molecule?
The value was 10.

And the P21 level down-regulated (p21; both cell lines (U373, SW480) expressing the shRNA against HtrA1)?
Its P21 level down-regulated is 90%.

What about the HtrA1 level downregulated (HtrA1 [3]) of the same molecule?
Its HtrA1 level downregulated is “more than 90%”.
